Measurements published in patent US20230233546A1, “METHODS OF TREATING CANCER” (Kymera Therapeutics, Inc., priority 2021, published 2023).

Key:
[1] = test system: Acute lymphoblastic leukemia cells (RS4;11); test: Cell Titer Glo cell viability / growth inhibition in RS4;11; format: cell-based; settings: for IC50: Homo sapiens, RS4-11, read-out: all cell killing CTG IC50 in RS4;11
Experimental: (§1) In vitro cell viability in all cells lines, at optimized growth conditions, was assessed using Cell Titer Glo (Promega) assay performed over 24 h-96 h compound treatments. Compound treatments were carried out using a 11-point dose response, 3-fold serial dilutions stating at a maximum concentration of 1 uM. IC50, IC90 values were calculated by curve fitting using appropriate Nonlinear Regression fit in GraphPad Prism. Cell cycle arrest and/or apoptosis in response to single agent or combination treatment was assessed using flow cytometry analysis on cells treated for 24 h.
Acute lymphoblastic leukemia cells (RS4;11) were treated for 24 h with Compound A or small molecule inhibitor DS-3032 in a 3-fold serial dilution dose-response at maximum concentration of 1 mM. Growth inhibition was quantified using Cell titer glo (Promega) assay at 24 h continuous treatment.

[2] = target: T1, C-terminally HiBiT-tagged MDM2 (Homo sapiens, UniProt Q00987); test: MDM2 degradation, HiBiT signal (Nano-Glo HiBiT lytic detection) in 293T cells; format: cell-based
T1 construct: expressed in transfected cells
T1 sequence (Q00987 whole entry): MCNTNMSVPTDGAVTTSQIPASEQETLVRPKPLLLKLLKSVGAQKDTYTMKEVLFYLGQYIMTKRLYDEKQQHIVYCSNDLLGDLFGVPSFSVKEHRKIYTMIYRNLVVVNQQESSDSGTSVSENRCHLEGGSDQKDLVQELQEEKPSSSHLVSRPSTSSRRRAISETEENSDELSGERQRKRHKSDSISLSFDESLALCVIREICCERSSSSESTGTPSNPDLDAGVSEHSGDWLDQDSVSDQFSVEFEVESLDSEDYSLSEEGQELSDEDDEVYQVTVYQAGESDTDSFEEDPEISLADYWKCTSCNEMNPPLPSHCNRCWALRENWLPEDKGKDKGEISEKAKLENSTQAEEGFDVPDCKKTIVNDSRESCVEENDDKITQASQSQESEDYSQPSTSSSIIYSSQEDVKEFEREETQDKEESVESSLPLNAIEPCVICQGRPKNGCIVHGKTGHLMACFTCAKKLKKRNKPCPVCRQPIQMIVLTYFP
Experimental: 293T cells stably expressing C-terminally HiBiT-tagged MDM2 were treated for 4 h with Compound A or small molecule inhibitor DS-3032 in a 3-fold serial dilution dose-response at maximum concentration of 1 mM. Degradation potency was measured as reduction in HiBiT signal, quantified using Nano-Glo® HiBiT lytic detection system (Promega).

p53 = p53 stabilization, p53 MSD assay in RS4;11 cells; format: cell-based; settings: RS4;11, 2 h treatment
Experimental: Acute lymphoblastic leukemia cells (RS4;11) were treated for 2 h (4 h, 8 h and 24 h—data not shown) with Compound A or small molecule inhibitor DS-3032 in a 3-fold serial dilution dose-response at maximum concentration of 1 mM. p53 levels were quantified using p53 MSD assay (Total p53 Whole Cell Lysate Kit, MSD, K150DBD-2).

[3] = test system: Acute lymphoblastic leukemia cells (RS4;11); test: Washout apoptosis assay, Caspase Glo 3/7 in RS4;11; format: cell-based; settings: RS4;11, 4 h exposure followed by washout, measured at 24 or 48 h post treatment
Experimental: For washout assay, cells were treated for 4-24 h at serial dilutions indicated above. At the end of treatment times (4 h, 8 h, 16 h and 24 h) cells were washed twice with complete media, plated in 384-well plates and incubated for 24-72 h. Cells were assessed for viability using Cell Titer Glo (Promega) assay and apoptosis using Caspase Glo 3/7 (Promega) assay at 24 h, 48 h and 72 h post the start of treatment.
Acute lymphoblastic leukemia cells (RS4;11) were treated for 4 h (8 h, 16 h, 24 h—data not shown) with Compound A or small molecule inhibitor DS-3032 at indicated concentrations. Apoptotic activity was quantified as increase in Caspase activity measured using Caspase Glo® 3/7 assay system (Promega).

RS4;11 tumor = test: RS4;11 subcutaneous mouse xenograft, tumor volume; format: in vivo; settings: single intravenous bolus, 1, 3, and 10 mg/kg; doses as low as 1 mg/kg
Experimental: Female mice, 5-8 wks old mice NOD/SCID mice from SPF (Beijing) experimental Animal Science Technology Co., ltd. Animals were received, housed and observed for seven days prior to study initiation. Each mouse were inoculated subcutaneously with RS4;11 tumor cells (1×107) in 0.1 ml of RPMI1640 with 10% FBS for tumor development. Groups and treatments were started when the mean tumor volume reached about 100 mm3 for study. Based on the tumor volume, mice were randomly assigned to respective groups using a computer-generated randomization procedure. Compound A was formulated in 20% HP-β-CD at concentrations up to 0.1 mg/mL and administered intravenously to tumor bearing animals. Tumor size was measured twice to three times weekly in three dimensions using a caliper. The measurement of tumor size were conducted twice weekly with a caliper and recorded. The tumor volume (mm^3) was estimated using the formula: TV=a×b2/2, where “a” and “b” are long and short diameters of a tumor, respectively.
(§2) Compound A was administered as a single intravenous bolus in RS411 tumor bearing mice at doses of 1, 3, and 10 mg/kg. […] Change in the levels of protein markers in degrader treated xenografts was quantified relative vehicle treated xenografts using western blot assay. Clinical equivalent doses of SMIs had no significant in vivo impact in these xenograft models.

p53, p21, and PUMA = test: Protein markers in RS4;11 tumor xenografts, western blot; format: in vivo, mouse; settings: 1 mg/kg
Experimental: At various times tumor bearing animals were sacrificed and plasma and tumors collected for pharmacokinetic and pharmacodynamic determinations.
as §2

disseminated AML model = test: Disseminated AML xenograft model, survival; format: in vivo, mouse; settings: weekly administration, compared to vehicle treated animals
Experimental: Female mice, 5-8 wks old mice NOD/SCID mice from SPF (Beijing) experimental Animal Science Technology Co., ltd. Animals were received, housed and observed for seven days prior to study initiation. Each mouse will be with tumor cells in 0.1 ml PBS via tail-vein injection. Groups and treatments were started 4 days post-inoculation. Based on the body weight, mice were randomly assigned to respective groups using a computer-generated randomization procedure. Compound A was formulated in 20% HP-β-CD at concentrations up to 0.1 mg/mL and administered intravenously to tumor bearing animals.
In this model, Compound A exposures correlated with induction of apoptotic p53 target genes and tumor growth inhibition.

[4] = test system: CTG-2227 AML patient-derived xenograft (PDX); test: AML patient-derived xenograft model CTG-2227; format: in vivo, mouse; settings: 1 mg/kg, Q3W, IV
Experimental: (§3) AML patient cells from leukapheresis were intravenously (IV) injected and established in immunocompromised host strain mice. Surrogate animals were used to determine the level of engraftment targeting a threshold of ˜20% huCD45+ cells in BM. Mice were randomized on study and treatment was initiated. Vehicle and Compound A, 1 mg/kg were administered IV, every three weeks for six weeks (total of two doses of Compound A). At study end, whole blood, bone marrow and spleen were assessed by flow cytometry.

CTG-2240 AML PDX = test: AML patient-derived xenograft model CTG-2240; format: in vivo, mouse; settings: 1 mg/kg, Q3W, IV
Experimental: as §3

CTG-2700 AML PDX = test: AML patient-derived xenograft model CTG-2700; format: in vivo, mouse; settings: 1 mg/kg, Q3W, IV
Experimental: as §3

[5] = test system: hCD45+ cells in bone marrow and AML blasts; test: AML PDX models, flow cytometry at study end; format: in vivo, mouse; settings: 1 mg/kg, Q3W
Experimental: as §3

MOLM-13 cell line = test: Combination treatment in MOLM-13 cell line, apoptosis and cell killing; format: cell-based; settings: combination with venetoclax and midostaurin
Experimental: as §1

MOLM-13 xenograft = MOLM-13 xenograft model, combination with standard of care; format: in vivo
[6] = test system: multiple heme indications (AML, T cell lymphomas, mantle cell lymphoma, DLBCL); test: In vitro activity across heme indications; format: cell-based; settings: mantle cell lymphoma, and DLBCL most sensitive
Experimental: as §1

[7] = test system: OCI-LY10 p53^WT ABC-subtype DLBCL xenograft; test: OCI-LY10 DLBCL xenograft model; format: in vivo
[8] = test system: TMD8 p53^MUT ABC-subtype DLBCL xenograft; test: TMD8 DLBCL xenograft model; format: in vivo
[9] = test system: panel of solid and hematological tumor cell lines; test: Cell growth inhibition across a tumor cell line panel; format: cell-based
Experimental: as §1

CC(C)[C@@H](CS(=O)(=O)C(C)C)N1C(=O)[C@@](C)(CC(=O)O)C[C@H](c2cccc(Cl)c2)[C@H]1c1ccc(Cl)cc1 [AMG-232]
IC50 [1]: 280 nM

Cn1c(=O)n(C2CCC(=O)NC2=O)c2ccc(C3CCN(C(=O)[C@H]4CC[C@H](NC(=O)[C@@H]5NC6(CCCCC6)[C@@]6(C(=O)Nc7cc(Cl)ccc76)[C@H]5c5cccc(Cl)c5F)CC4)CC3)cc21 (stereo partly drawn) [Compound A, (3′R,4'S,5′R)-6″-chloro-4′-(3-chloro-2-fluorophenyl)-N-((1R,4R)-4-(4-(1-(2,6-dioxopiperidin-3-yl)-3-methyl-2-oxo-2,3-dihydro-1H-benzo[d]imidazol-5-yl)piperidine-1-carbonyl)cyclohexyl)-2″-oxodispiro[cyclohexane-1,2′-pyrrolidine-3′,3″-indoline]-5′-carboxamide]
degradation of MDM2 ([2]; 4 h treatment): rapid and potent degradation of MDM2
degrades MDM2 at ([2]; FIG. 1, HiBiT-tagged MDM2, 4 h treatment): 0.4 nM
stabilization of p53 (p53): strong stabilization of p53
IC50 [1]: 0.3 nM
cancer cell growth inhibition ([1]; RS4;11, 24 h continuous treatment, compared with SMI): potently inhibits cancer cell growth
induction of apoptosis (Caspase activity) [3]: sufficient to potently induce apoptosis
anti-tumor activity (RS4;11 tumor): sustained tumor regression
time of peak of protein marker upregulation post-dose (p53, p21, and PUMA): 6 h
upregulation of protein markers p53, p21, and PUMA in tumor xenografts (p53, p21, and PUMA; relative to vehicle treated xenografts): marked upregulation
survival (disseminated AML model): significantly prolonged the survival
response in CTG-2227 AML PDX model [4]: tumor regression
response in CTG-2240 AML PDX model (CTG-2240 AML PDX): partial responses
response in CTG-2700 AML PDX model (CTG-2700 AML PDX): partial responses
hCD45+ cells in bone marrow and AML blasts [5]: significantly reduces
induction of apoptosis and cell killing in combination (MOLM-13 cell line): enhances induction of apoptosis and cell killing
anti-tumor activity in MOLM-13 xenograft model (MOLM-13 xenograft; single dose in combination with daily dosing of venetoclax): sustained tumor regression
in vitro activity across heme indications [6]: active across multiple heme indications
activity in OCI-LY10 xenograft model [7]: highly active
activity in TMD8 xenograft model [8]: not
stronger cell growth inhibition, compared to SMIs [9]: > 200 fold

CC1(C)CCC2(CC1)N[C@@H](C(=O)N[C@@H]1CC[C@@H](C(N)=O)OC1)[C@H](c1ccnc(Cl)c1F)[C@]21C(=O)Nc2cc(Cl)ccc21 [DS-3032]
IC50 [1]: 67 nM

COc1ncc(-c2nc3c(n2C(C)C)[C@H](c2ccc(Cl)cc2)N(c2cc(Cl)cn(C)c2=O)C3=O)c(OC)n1 [HDM201]
IC50 [1]: 163 nM

COc1cc(C(=O)O)ccc1NC(=O)[C@@H]1N[C@@H](CC(C)(C)C)[C@](C#N)(c2ccc(Cl)cc2F)[C@H]1c1cccc(Cl)c1F [RG7388]
IC50 [1]: 220 nM

CC(C)(C)C[C@@H]1N[C@@H](C(=O)N[C@H]2CC[C@H](O)CC2)[C@H](c2cccc(Cl)c2F)[C@]12C(=O)Nc1cc(Cl)ccc12 [SAR405838]
IC50 [1]: 620 nM

Nc1ccn([C@@H]2O[C@H](CO)[C@@H](O)[C@@H]2O)c(=O)n1 [cytarabine]
anti-tumor activity in MOLM-13 xenograft model (MOLM-13 xenograft; combination of cytarabine and venetoclax): no significant anti-tumor activity
anti-tumor activity in MOLM-13 xenograft model (MOLM-13 xenograft; cytarabine alone): no significant anti-tumor activity
